In PubChem BioAssay (NCI):
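Cultured in 96-well plates, cells were exposed to test compound for 48 hours across five concentrations. GI50 marks 50% less growth. At the TGI there is no net growth.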

Experiments:
Test in all cases: NCI tumour cell line growth inhibition, 48 h
SF-268 CNS = system: SF-268 CNS
ACHN renal = system: ACHN renal
TK-10 renal = system: TK-10 renal
SNB-19 CNS = system: SNB-19 CNS
MOLT-4 leukemia = system: MOLT-4 leukemia
HT29 colon = system: HT29 colon
NCI-H226 lung = system: NCI-H226 lung
SF-295 CNS = system: SF-295 CNS
OVCAR-8 ovarian = system: OVCAR-8 ovarian

Structure (SMILES) | TGI (SF-268 CNS) [µM] | TGI (ACHN renal) [µM] | TGI (TK-10 renal) [µM] | TGI (SNB-19 CNS) [µM] | TGI (MOLT-4 leukemia) [µM] | TGI (HT29 colon) [µM] | TGI (NCI-H226 lung) [µM] | TGI (SF-295 CNS) [µM] | TGI (OVCAR-8 ovarian) [µM] | GI50 (SF-268 CNS) [µM] | GI50 (ACHN renal) [µM] | GI50 (SF-295 CNS) [µM] | GI50 (TK-10 renal) [µM] | GI50 (SNB-19 CNS) [µM] | GI50 (OVCAR-8 ovarian) [µM] | GI50 (MOLT-4 leukemia) [µM] | GI50 (HT29 colon) [µM] | GI50 (NCI-H226 lung) [µM]
C1=C(c2ccccc2)CN(c2ccccc2)OC1 | > 100 | > 100 | > 100 | > 100 | > 100 | > 100 | > 100 |  |  |  |  |  |  |  |  |  |  | 
C1OCC2S[C@@H]3COCO[C@@H]3C2O1 (stereo partly drawn) | > 100 | > 100 | > 100 | > 100 | > 100 | > 100 | > 100 | > 100 | > 100 |  |  |  |  |  |  |  |  | 
O=C(O)c1ccccc1Cc1ccco1 | > 100 | > 100 | > 100 | > 100 | > 100 | > 100 | > 100 | > 100 | > 100 |  |  |  |  |  |  |  |  | 
CCC[CH2][Sn]([CH2]CCC)([O]C(=O)c1c(F)cccc1F)[O]C(=O)c1c(F)cccc1F | 1.83 | 2.01 | 2.13 | 2.56 | 0.818 | 2.87 | 3.32 | 2.9 | 2.41 | 0.565 | 0.763 | 1.56 | 0.956 | 1.29 | 1.18 | 0.239 | 1.52 | 1.89
NNC(=S)N/N=C(\CCCC(=O)NCCc1ccccc1)CC(=O)c1ccccc1 | > 100 | > 100 | > 100 | > 100 |  | > 100 |  | > 100 | > 100 |  |  |  |  |  |  |  |  | 
CC[P+](C)(Cc1ccccc1)c1ccccc1 (stereo not drawn) |  | > 100 | > 100 | > 100 | > 100 | > 100 | > 100 | > 100 | > 100 |  |  |  |  |  |  |  |  | 
COc1ccc(S(=O)(=O)NC(C)C(=O)O)cc1 (stereo not drawn) | > 100 | > 100 | > 100 | > 100 | > 100 | > 100 |  | > 100 | > 100 |  |  |  |  |  |  |  |  | 
COc1ccc(/C=C2\CN(C)Cc3c2nc(N)nc3-c2ccc(OC)cc2)cc1 | > 100 | > 100 | > 100 | > 100 | > 100 |  | > 100 | > 100 | > 100 |  |  |  |  |  |  |  |  | 
C#CCC[C@@H]1O[C@@]1(C)CC/C=C(\C)CC/C=C/C=O | 56.3 | > 100 |  | > 100 | 52.9 | > 100 | > 100 | 79.4 | 38.3 |  |  |  |  |  |  |  |  | 
CC1CC2C3CC(F)C4=CC(=O)C=CC4(C)C3(F)C(O)CC2(C)C1(O)C(=O)COC(=O)C(C)(C)C (stereo not drawn) | > 100 | > 100 | > 100 | > 100 | > 100 | > 100 | > 100 | > 100 |  |  |  |  |  |  |  |  |  | 
COc1cc(CCc2cccnc2)cc(OC)c1OC | > 100 | > 100 | > 100 | > 100 | > 100 | > 100 | > 100 | > 100 | > 100 |  |  |  |  |  |  |  |  | 
Cc1cccc(C(=O)c2cccc3ccccc23)c1C(=O)O | > 100 | > 100 | > 100 | > 100 | > 100 | > 100 | > 100 | > 100 | > 100 |  |  |  |  |  |  |  |  | 
